Measured values from US9409882B2, “Pyridine derivatives” (Hoffmann-La Roche Inc., priority 2012, dated 2016).

Assays:
human Cat L = human Cat L (Homo sapiens (Human), UniProt P07711); experiment: Cathepsin enzyme inhibition assay (fluorogenic peptide substrate), human Cat L; format: biochemical; conditions: human Cat L 1 nM, substrate Z-Val-Val-Arg-AMC 20 μM, pH 6.5
Protocol: (§1) Cathepsin Enzyme Inhibition Assay
(§2) Enzyme activity is measured by observing the increase in fluorescence intensity caused by cleavage of a peptide substrate containing a fluorophore whose emission is quenched in the intact peptide.
(§3) Assay buffer: 100 mM potassium phosphate pH 6.5, EDTA-Na 5 mM, Triton X-100 0.001%, DTT 5 mM.
(§4) Enzymes (all at 1 nM): human and mouse Cathepsin S, Cat K, Cat B, Cat L.
(§5) Substrate (20 μM): Z-Val-Val-Arg-AMC, except for Cat K which uses Z-Leu-Arg-AMC (both from Bachem).
(§6) AMC=7-Amino-4-Methyl-Coumarin.
(§7) Excitation 360 nm, Emission 465 nm.
(§8) Enzyme is added to the substance dilutions in 96-well microtitre plates and the reaction is started with substrate. […] IC50 are calculated by standard methods.
(§9) Inhibition of human Cat S, mouse Cat S, human Cat K, human Cat B, human Cat L and mouse Cat L have been measured separately.

human Cathepsin S = human Cathepsin S (Homo sapiens (Human), UniProt P25774); experiment: Cathepsin enzyme inhibition assay (fluorogenic peptide substrate), human Cat S; format: biochemical; conditions: human Cat S 1 nM, substrate Z-Val-Val-Arg-AMC 20 μM, pH 6.5
Chain of human Cathepsin S (P25774 115-331): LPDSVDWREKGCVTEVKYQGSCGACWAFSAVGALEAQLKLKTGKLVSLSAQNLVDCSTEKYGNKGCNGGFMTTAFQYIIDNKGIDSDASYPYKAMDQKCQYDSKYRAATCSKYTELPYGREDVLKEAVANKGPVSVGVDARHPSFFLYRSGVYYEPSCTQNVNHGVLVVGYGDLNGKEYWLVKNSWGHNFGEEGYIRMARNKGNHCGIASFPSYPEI
Protocol: as §1, §2, §3, §4, §5, §6, §7, §8, §9

Chain of human Cat L (P07711 114-333): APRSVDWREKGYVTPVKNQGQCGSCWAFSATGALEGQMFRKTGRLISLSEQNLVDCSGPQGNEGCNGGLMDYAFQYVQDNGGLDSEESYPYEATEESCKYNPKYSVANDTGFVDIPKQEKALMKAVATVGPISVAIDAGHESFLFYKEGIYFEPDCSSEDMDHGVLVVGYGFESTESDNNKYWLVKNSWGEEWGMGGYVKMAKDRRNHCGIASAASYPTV

Compound | IC50 (human Cat L) [nM] | IC50 (human Cathepsin S) [nM]
COc1ccc(S(=O)(=O)[C@@H]2C[C@@H](C(=O)NC3(C#N)CC3)N(C(=O)C3(c4ccc(Cl)cn4)CC3)C2)c(Cl)c1 [Example 1, (2S,4R)-4-(2-Chloro-4-methoxy-benzenesulfonyl)-1-[1-(5-chloro-pyridin-2-yl)-cyclopropanecarbonyl]-pyrrolidine-2-carboxylic acid (1-cyano-cyclopropyl)-amide] | 410 | 0.606
N#CC1(NC(=O)[C@@H]2C[C@@H](S(=O)(=O)c3ccccc3Cl)CN2C(=O)C2(c3ccc(Cl)cn3)CC2)CC1 [Example 2, (2S,4R)-4-(2-Chloro-benzenesulfonyl)-1-[1-(5-chloro-pyridin-2-yl)-cyclopropanecarbonyl]-pyrrolidine-2-carboxylic acid (1-cyano-cyclopropyl)-amide] | 340 | 0.492
N#CC1(NC(=O)[C@@H]2C[C@@H](S(=O)(=O)c3ccccc3Cl)CN2C(=O)C2(c3ncc(Cl)cc3F)CC2)CC1 [Example 5, (2S,4R)-4-(2-Chloro-benzenesulfonyl)-1-[1-(5-chloro-3-fluoro-pyridin-2-yl)-cyclopropanecarbonyl]-pyrrolidine-2-carboxylic acid (1-cyano-cyclopropyl)-amide] | 12.9 | 0.398
N#CC1(NC(=O)[C@@H]2C[C@@H](Sc3ncccc3Cl)CN2C(=O)C2(c3ncc(Cl)cc3F)CC2)CC1 [Example 10, (2S,4R)-1-[1-(5-Chloro-3-fluoro-pyridin-2-yl)-cyclopropanecarbonyl]-4-(3-chloro-pyridin-2-ylsulfanyl)-pyrrolidine-2-carboxylic acid (1-cyano-cyclopropyl)-amide] | – | 964
N#CC1(NC(=O)[C@@H]2C[C@@H](S(=O)(=O)c3ccc(F)cc3Cl)CN2C(=O)C2(c3ncc(Cl)cc3F)CC2)CC1 [Example 11, (2S,4R)-1-(1-(5-chloro-3-fluoropyridin-2-yl)cyclopropanecarbonyl)-4-(2-chloro-4-fluorophenylsulfonyl)-N-(1-cyanocyclopropyl)pyrrolidine-2-carboxamide] | 89.8 | 0.602
N#CC1(NC(=O)[C@@H]2C[C@@H](Sc3ccccn3)CN2C(=O)C2(c3ncc(Cl)cc3F)CC2)CC1 [Example 12, (2S,4R)-1-[1-(5-Chloro-3-fluoro-pyridin-2-yl)-cyclopropanecarbonyl]-4-(pyridin-2-ylsulfanyl)-pyrrolidine-2-carboxylic acid (1-cyano-cyclopropyl)-amide] | 8230 | 594
N#CC1(NC(=O)[C@@H]2C[C@@H](S(=O)(=O)c3cccc(-c4ccc(F)cc4)c3)CN2C(=O)C2(c3ncc(Cl)cc3F)CC2)CC1 [Example 13, (2S,4R)-1-[1-(5-Chloro-3-fluoro-pyridin-2-yl)-cyclopropanecarbonyl]-4-(4′-fluorobiphenyl-3-sulfonyl)-pyrrolidine-2-carboxylic acid (1-cyano-cyclopropyl)-amide] | 247 | –
N#CC1(NC(=O)[C@@H]2C[C@@H](S(=O)(=O)c3ncccc3Cl)CN2C(=O)C2(c3ncc(Cl)cc3F)CC2)CC1 [Example 14, (2S,4R)-1-[1-(5-Chloro-3-fluoro-pyridin-2-yl)-cyclopropanecarbonyl]-4-(3-chloropyridine-2-sulfonyl)-pyrrolidine-2-carboxylic acid (1-cyano-cyclopropyl)-amide] | 2120 | –
N#CC1(NC(=O)[C@@H]2C[C@@H](Sc3ccc(Cl)cn3)CN2C(=O)C2(c3ncc(Cl)cc3F)CC2)CC1 [Example 17, (2S,4R)-1-[1-(5-Chloro-3-fluoro-pyridin-2-yl)-cyclopropanecarbonyl]-4-(5-chloro-pyridin-2-ylsulfanyl)-pyrrolidine-2-carboxylic acid (1-cyano-cyclopropyl)-amide] | 5650 | 264
N#CC1(NC(=O)[C@@H]2C[C@@H](S(=O)(=O)c3ccccn3)CN2C(=O)C2(c3ncc(Cl)cc3F)CC2)CC1 [Example 18, (2S,4R)-1-[1-(5-Chloro-3-fluoro-pyridin-2-yl)-cyclopropanecarbonyl]-4-(pyridine-2-sulfonyl)-pyrrolidine-2-carboxylic acid (1-cyano-cyclopropyl)-amide] | 3430 | 4.24
Cc1cccc(S[C@@H]2C[C@@H](C(=O)NC3(C#N)CC3)N(C(=O)C3(c4ncc(Cl)cc4F)CC3)C2)n1 [Example 19, (2S,4R)-1-[1-(5-Chloro-3-fluoro-pyridin-2-yl)-cyclopropanecarbonyl]-4-(6-methyl-pyridin-2-ylsulfanyl)-pyrrolidine-2-carboxylic acid (1-cyano-cyclopropyl)-amide] | 4610 | –
N#CC1(NC(=O)[C@@H]2C[C@@H](Sc3ccc(C(F)(F)F)cn3)CN2C(=O)C2(c3ncc(Cl)cc3F)CC2)CC1 [Example 20, (2S,4R)-1-[1-(5-Chloro-3-fluoro-pyridin-2-yl)-cyclopropanecarbonyl]-4-(5-trifluoromethyl-pyridin-2-ylsulfanyl)-pyrrolidine-2-carboxylic acid (1-cyano-cyclopropyl)-amide] | 5060 | 393
N#CC1(NC(=O)[C@@H]2C[C@@H](Sc3ncccc3C(F)(F)F)CN2C(=O)C2(c3ncc(Cl)cc3F)CC2)CC1 [Example 21, (2S,4R)-1-[1-(5-Chloro-3-fluoro-pyridin-2-yl)-cyclopropanecarbonyl]-4-(3-trifluoromethyl-pyridin-2-ylsulfanyl)-pyrrolidine-2-carboxylic acid (1-cyano-cyclopropyl)-amide] | 10000 | 275
N#CC1(NC(=O)[C@@H]2C[C@@H](Sc3cc(C(F)(F)F)ccc3Cl)CN2C(=O)C2(c3ncc(Cl)cc3F)CC2)CC1 [Example 26, (2S,4R)-1-[1-(5-Chloro-3-fluoro-pyridin-2-yl)-cyclopropanecarbonyl]-4-(2-chloro-5-trifluoromethyl-phenylsulfanyl)-pyrrolidine-2-carboxylic acid (1-cyano-cyclopropyl)-amide] | 52.4 | –

Other lines, results leading:

IC50 (human Cat L) [nM] | IC50 (human Cathepsin S) [nM] | Compound
429 | 0.825 | N#CC1(NC(=O)[C@@H]2C[C@@H](S(=O)(=O)c3ccc(OCC(F)(F)F)cc3Cl)CN2C(=O)C2(c3ccc(Cl)cn3)CC2)CC1 [Example 3, (2S,4R)-1-[1-(5-Chloro-pyridin-2-yl)-cyclopropanecarbonyl]-4-[2-chloro-4-(2,2,2-trifluoro-ethoxy)-benzenesulfonyl]-pyrrolidine-2-carboxylic acid (1-cyano-cyclopropyl)-amide]
11.9 | 0.393 | COc1ccc(S(=O)(=O)[C@@H]2C[C@@H](C(=O)NC3(C#N)CC3)N(C(=O)C3(c4ncc(Cl)cc4F)CC3)C2)c(Cl)c1 [Example 4, (2S,4R)-1-[1-(5-Chloro-3-fluoro-pyridin-2-yl)-cyclopropanecarbonyl]-4-(2-chloro-4-methoxy-benzenesulfonyl)-pyrrolidine-2-carboxylic acid (1-cyano-cyclopropyl)-amide]
44.5 | 0.675 | N#CC1(NC(=O)[C@@H]2C[C@@H](S(=O)(=O)c3ccc(OCC(F)(F)F)cc3Cl)CN2C(=O)C2(c3ncc(Cl)cc3F)CC2)CC1 [Example 6, (2S,4R)-1-[1-(5-Chloro-3-fluoro-pyridin-2-yl)-cyclopropanecarbonyl]-4-[2-chloro-4-(2,2,2-trifluoro-ethoxy)-benzenesulfonyl]-pyrrolidine-2-carboxylic acid (1-cyano-cyclopropyl)-amide]
25.5 | 0.734 | COc1ccc(S(=O)(=O)[C@@H]2C[C@@H](C(=O)NC3(C#N)CC3)N(C(=O)C3(c4ncc(Br)cc4F)CC3)C2)c(Cl)c1 [Example 7, (2S,4R)-1-[1-(5-Bromo-3-fluoro-pyridin-2-yl)-cyclopropanecarbonyl]-4-(2-chloro-4-methoxy-benzenesulfonyl)-pyrrolidine-2-carboxylic acid (1-cyano-cyclopropyl)-amide]
19.2 | 0.438 | N#CC1(NC(=O)[C@@H]2C[C@@H](S(=O)(=O)c3ccccc3Cl)CN2C(=O)C2(c3ncc(Br)cc3F)CC2)CC1 [Example 8, (2S,4R)-1-[1-(5-Bromo-3-fluoro-pyridin-2-yl)-cyclopropanecarbonyl]-4-(2-chloro-benzenesulfonyl)-pyrrolidine-2-carboxylic acid (1-cyano-cyclopropyl)-amide]
416 | 11.8 | N#CC1(NC(=O)[C@@H]2C[C@@H](Sc3cccc(-c4ccc(F)cc4)c3)CN2C(=O)C2(c3ncc(Cl)cc3F)CC2)CC1 [Example 9, (2S,4R)-1-[1-(5-Chloro-3-fluoro-pyridin-2-yl)-cyclopropanecarbonyl]-4-(4′-fluorobiphenyl-3-ylsulfanyl)-pyrrolidine-2-carboxylic acid (1-cyano-cyclopropyl)-amide]
1680 | 11.1 | N#CC1(NC(=O)[C@@H]2C[C@H](S(=O)(=O)c3ccc(F)cc3Cl)CN2C(=O)C2(c3ncc(Cl)cc3F)CC2)CC1 [Example 15, (2S,4S)-4-(2-Chloro-4-fluoro-benzenesulfonyl)-1-[1-(5-chloro-3-fluoro-pyridin-2-yl)-cyclopropanecarbonyl]-pyrrolidine-2-carboxylic acid (1-cyano-cyclopropyl)-amide]
– | 0.703 | Cn1cc(-c2ccc(S(=O)(=O)[C@@H]3C[C@@H](C(=O)NC4(C#N)CC4)N(C(=O)C4(c5ncc(Cl)cc5Cl)CC4)C3)c(Cl)c2)cn1 [Example 40, (2S,4R)-4-[2-Chloro-4-(1-methyl-1H-pyrazol-4-yl)-benzenesulfonyl]-1-[1-(3,5-dichloro-pyridin-2-yl)-cyclopropanecarbonyl]-pyrrolidine-2-carboxylic acid (1-cyano-cyclopropyl)-amide]
